The source of these data is ChEMBL document CHEMBL1122884, “Syntheses and complement inhibitory activities of 4-(2-phenyl-1H-indol-3-yl)cyclohexane-1-carboxylic acids” (J Med Chem, 1985).

For one experiment, the species on record is Homo sapiens. Kind of experiment: In vitro inhibitory activity against human classical complement pathway. The format is functional.
The test system of a further experiment is Cavia porcellus. As to the kind of experiment: Inhibition dose of the Reverse Passive Arthus Reaction (RPAR) in guinea pig after intravenous administration at a dose 80 mg/kg. The format is functional.

A word on the IC50: it is the concentration needed to halve the response being measured. Low values mean greater potency, high ones weaker potency. The inhibition in vivo is the drop in the measured response relative to a control, in per cent. Low values mean a response near the control, high ones a response far below the control.

Structures are written as SMILES.

`O=C(O)c1ccc(-c2c(-c3ccccc3)[nH]c3ccccc23)cc1` yielded an IC50 in the experiment filed under Homo sapiens of 105 µM. Compound `O=C(O)C1CC=C(c2c(-c3ccccc3)[nH]c3ccccc23)CC1` (stereo not drawn) returned an IC50 in the experiment listed under Homo sapiens of 135 µM. In the experiment with Cavia porcellus, this compound came in with an inhibition in vivo at 80 mg/kg of 64%.
